Laboratory results taken from article PMC8426295, “Cytotoxic and radiosensitising effects of a novel thioredoxin reductase inhibitor in breast cancer” (Investigational New Drugs, 2021).

Tests used:
[1] = system: breast cancer cell lines; assay: Cell proliferation assay, stated across all cell lines; type: cell-based, human; conditions: 400–600 nM, 48 h
Description: 1 × 10^5 cells (2 × 10^5 for T47D’s) were seeded, in triplicate, in 6-well plates and incubated overnight before being treated with IQ9 (0–5000 nM) or doxorubicin (400–600 nM) (positive control and comparator). Total cells were counted after 48 h using a haemocytometer. The total cell count in drug treatment wells was normalised as a percentage of the total cells in vehicle control wells.

[2] = parameters: method as in PMID 22509926; conditions: cited from earlier work
[3] = system: breast cancer lines; parameters: method as in PMID 31366901; conditions: cited from earlier work
[4] = system: renal cancer lines; parameters: method as in PMID 28810535; conditions: cited from earlier work
[5] = biological target: T1, TrxR (Homo sapiens, UniProt Q16881); assay: Thioredoxin reductase activity assay (insulin reduction) on lysates of drug-treated breast cancer cells; type: cell-based; conditions: 1000 nM; for inhibition of TrxR activity: 48 h
T1 sequence (Q16881 1-649): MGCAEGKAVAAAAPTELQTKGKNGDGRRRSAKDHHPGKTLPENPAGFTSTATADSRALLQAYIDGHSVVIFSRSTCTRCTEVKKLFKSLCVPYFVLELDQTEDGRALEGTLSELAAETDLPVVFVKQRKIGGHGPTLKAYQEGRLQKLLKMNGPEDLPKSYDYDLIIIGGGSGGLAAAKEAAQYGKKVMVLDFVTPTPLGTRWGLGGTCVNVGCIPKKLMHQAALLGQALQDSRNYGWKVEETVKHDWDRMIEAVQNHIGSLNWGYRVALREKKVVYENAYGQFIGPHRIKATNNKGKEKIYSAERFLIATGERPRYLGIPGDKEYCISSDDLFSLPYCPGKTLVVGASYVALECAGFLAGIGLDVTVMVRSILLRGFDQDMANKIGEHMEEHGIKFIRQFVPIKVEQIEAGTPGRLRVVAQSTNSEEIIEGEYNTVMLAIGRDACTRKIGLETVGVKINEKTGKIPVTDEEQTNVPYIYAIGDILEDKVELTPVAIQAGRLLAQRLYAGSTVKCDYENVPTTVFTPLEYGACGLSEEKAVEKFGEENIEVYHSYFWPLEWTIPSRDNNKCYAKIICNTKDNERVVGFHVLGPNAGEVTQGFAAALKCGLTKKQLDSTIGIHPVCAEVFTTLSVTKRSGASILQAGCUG
Description: TrxR enzyme activity was assessed using an insulin reduction assay. Briefly, 2 × 10^6 cells were seeded, in triplicate, in 75c m^2 tissue culture flasks. After 24 h, sub-confluent cells were treated with either IQ9 (0–1000 nM) or 1000 nM auranofin (as a positive control) for 4 or 48 h, then trypsinised, washed, and resuspended in M-PER™ Mammalian Protein Extraction Reagent (ThermoFisher, USA) supplemented with 1X Halt protease inhibitor and EDTA. Protein concentration was determined using the Bradford assay. 80 μg of protein lysates isolated from each treatment conditions and reaction mix (HE buffer (100 mM HEPES pH 7.2, 5 mM EDTA), 20 μM Trx, 1.7 mM insulin, 10 mM β-NADPH) were added to the 96-well plate and incubated for 1 h at 37 °C. The reaction was stopped by adding stop buffer containing 6 M guanidine hydrochloride, 50 mM Tris, and 10 mM DTNB (Sigma, UK), with a final pH of 8.0. The plate was read at room temperature using a BMG Fluostar Optima Microplate Reader at 412 nm wavelength. The TrxR activity was expressed as the percentage of control, no drug-treated.

[6] = parameters: method as in PMID 27217046; conditions: clinical; cited from earlier work

COc1cccc2c1C(=O)c1c(O)c3c(c(O)c1C2=O)C[C@@](O)(C(=O)CO)C[C@@H]3O[C@H]1C[C@H](N)[C@H](O)[C@H](C)O1 [doxorubicin]
decrease in cell number [1]: 50–70%

Cn1c(/C=C/CO)c(CO)c2c1C(=O)C=C(N1CC1)C2=O [EO9]
clearance [2]: rapid clearance

COc1cc(/C=C/C(=O)CC(=O)/C=C/c2ccc(O)c(OC)c2)ccc1O [curcumin]
SER [3]: 1.38–1.78 | SER [4]: 1.42

CC(=O)OC[C@H]1O[C@@H]([S-])[C@H](OC(C)=O)[C@@H](OC(C)=O)[C@@H]1OC(C)=O.CCP(CC)CC.[Au+] [auranofin, reference compound]
decrease in TrxR activity ([5]; 4 h, across all cell lines): 70–100% | inhibition of TrxR activity ([5]; MDA-MB-231): approximately 80% | inhibition of TrxR activity ([5]; T47D, compared to control): 10%

O=c1[nH]cc(F)c(=O)[nH]1 [5-FU, 5-fluorouracil]
half-life [6]: less than 20 min
